# Experimental data published in patent US20030176356A1, “Endothelin antagonists and endothelin-converting enzyme inhibitors for the treatment of glaucoma” (University of North Texas Health Science Center, priority 2001, published 2003).
# Marks after values point to notes of the source that are not given here. No end group written: not given here. *: point of attachment. dPhe(β-Ph) = β-phenyl D-Phe (N-terminal, N-acetylated), CC(=O)N[C@@H](C(=O)*)C(c1ccccc1)c1ccccc1
# Experiments:
# [1] = biological target: T1, ECE-1 (Homo sapiens, UniProt P42892); assay: ECE-1 activity in plasma membrane fraction of HNPE cells (conversion of 125I Big ET-1 to 125I ET-1); format: biochemical
# T1 construct: The endogenous ECE from the plasma membrane fraction converted the; endogenous in cells; host or cells: HNPE cells (human non-pigmented ciliary epithelial), plasma membrane fraction
# T1 sequence (P42892 1-770): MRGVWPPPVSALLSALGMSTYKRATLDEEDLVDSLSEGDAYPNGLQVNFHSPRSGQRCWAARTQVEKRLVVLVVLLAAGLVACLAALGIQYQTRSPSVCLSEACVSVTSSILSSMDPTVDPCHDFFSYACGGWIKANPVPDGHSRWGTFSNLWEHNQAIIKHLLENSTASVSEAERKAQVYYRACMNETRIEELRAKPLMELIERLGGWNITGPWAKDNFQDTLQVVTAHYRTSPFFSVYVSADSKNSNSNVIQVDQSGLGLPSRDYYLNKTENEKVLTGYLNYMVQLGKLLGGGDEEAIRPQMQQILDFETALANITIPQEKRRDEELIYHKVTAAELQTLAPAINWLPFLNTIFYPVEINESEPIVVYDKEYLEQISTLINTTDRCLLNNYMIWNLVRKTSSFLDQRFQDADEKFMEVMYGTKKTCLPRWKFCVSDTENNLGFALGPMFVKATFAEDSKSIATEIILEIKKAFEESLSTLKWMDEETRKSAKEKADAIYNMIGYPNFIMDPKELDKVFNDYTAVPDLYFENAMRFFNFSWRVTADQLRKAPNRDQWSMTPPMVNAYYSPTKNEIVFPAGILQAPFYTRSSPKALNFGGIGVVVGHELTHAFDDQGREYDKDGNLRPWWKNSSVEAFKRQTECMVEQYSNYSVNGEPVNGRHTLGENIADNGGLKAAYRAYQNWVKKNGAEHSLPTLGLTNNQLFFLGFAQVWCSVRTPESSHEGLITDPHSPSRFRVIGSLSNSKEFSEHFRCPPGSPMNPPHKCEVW
# Experimental: (§1) Fractions were incubated at 37° C. and collected at various time periods ranging from 5 minutes to 24 hours. […] Values represent the mean±SEM for data obtained from replicate samples. Statistical significance of mean [ET-1] among different time periods in HNPE cells as determined by one-way ANOVA and Student-Newman-Keuls multiple comparison test at p<0.05 (5 min n=3; 10 min n=6; 180 min n=9; 24 hrs n=4). Values that were statistically different are identified with an asterisk (“*”). Statistical significance of mean [ET−1] among different time periods in rat lung tissue as determined by one-way ANOVA and Student-Newman-Keuls multiple comparison test at p<0.05 (n=6 for 180 minutes; n=4 for other time periods) and denoted with a cross (“†”). It should be noted that the regression analysis (“r^2”) and line equation (“y=m×+b”) for percent ECE-1 activity were calculated based on a line graph with equal scale on the X axis ranging from 0-1500 minutes.
# (§2) Briefly, plasma membrane fractions (e.g. 20 μg total protein) of HNPE cells and rat lung tissue were incubated with 80 fmoles/mg protein of ^125I Big ET-1 for 180 minutes. […] However, each of the samples was divided into two groups: a control; and the CGS 26303 treated group. […] The data were analyzed statistically by one-way ANOVA, and those values that show a significant difference (p<0.05 level) are identified with an asterisk (*).
# [2] = biological target: T2, ECE-1 (Rattus norvegicus, UniProt P42893); assay: ECE-1 activity in plasma membrane fraction of rat lung tissue (conversion of 125I Big ET-1 to 125I ET-1); format: biochemical
# T2 construct: The endogenous ECE from the plasma membrane fraction converted the; from tissue; host or cells: rat lung tissue, plasma membrane fraction
# T2 sequence (P42893 1-762): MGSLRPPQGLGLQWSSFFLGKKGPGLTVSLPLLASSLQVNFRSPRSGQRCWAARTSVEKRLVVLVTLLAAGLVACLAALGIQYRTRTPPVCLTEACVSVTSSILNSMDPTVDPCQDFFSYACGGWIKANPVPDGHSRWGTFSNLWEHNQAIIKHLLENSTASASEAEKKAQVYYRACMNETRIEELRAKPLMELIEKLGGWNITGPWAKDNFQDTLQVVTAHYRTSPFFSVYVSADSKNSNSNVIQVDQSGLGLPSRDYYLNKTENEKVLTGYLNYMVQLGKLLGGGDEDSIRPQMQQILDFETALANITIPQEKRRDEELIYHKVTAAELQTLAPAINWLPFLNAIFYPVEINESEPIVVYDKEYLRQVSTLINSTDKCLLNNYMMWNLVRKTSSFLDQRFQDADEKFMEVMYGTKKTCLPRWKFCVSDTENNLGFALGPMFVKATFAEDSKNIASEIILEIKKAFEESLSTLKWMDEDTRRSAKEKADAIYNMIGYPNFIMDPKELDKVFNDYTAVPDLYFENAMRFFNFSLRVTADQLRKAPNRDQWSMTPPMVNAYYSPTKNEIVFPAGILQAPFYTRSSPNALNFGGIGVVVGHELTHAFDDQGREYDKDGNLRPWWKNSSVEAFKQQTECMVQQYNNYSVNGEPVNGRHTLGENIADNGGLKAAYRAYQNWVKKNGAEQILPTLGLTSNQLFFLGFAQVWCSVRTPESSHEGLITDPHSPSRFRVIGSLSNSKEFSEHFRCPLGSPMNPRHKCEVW
# Experimental: as §1, §2
# [3] = test system: human non-pigmented ciliary epithelial (HNPE) cells; assay: Nitric oxide release from HNPE cells (nitrite, Griess colorimetric assay); format: cell-based; conditions: pre-treated with PD-142893 (1 μM) 30 minutes, then 100 nM ET-1, 24 hours; vs ET-1 alone
# Experimental: The effect of endothelin-1 (ET-1) and PD-142893, an ETA/B receptor antagonist, on nitric oxide (“NO”) release from human non-pigmented ciliary epithelial (HNPE) cells are illustrated in FIG. 6. The NO released into the culture media from HNPE cells grown in 24-well plates and treated with ET-1 (100 nM) for 24 hours was converted to nitrites. The total amount of nitrites was measured using the Griess colorimetric assay. HNPE cells were pre-treated with PD-142893 (1 μM) for 30 minutes and then 100 nM ET-1 was also added and incubated for 24 hours. The values in FIG. 6 represent the mean±SEM of a ratio between the nitrite produced under experimental conditions divided by the nitrite produced in control cells, which corresponded to 14.4±1.8 μM and controls were expressed as 100% (n=3). Statistical significance of the nitrite released from ET-1 (100 nM) treatment versus the control are denoted with an asterisk (“*”). Statistical significance of the nitrite released from PD-142893+ET-1 (100 nM) treatment versus that of ET-1 (100 nM) are denoted as a double asterisk (“**”) The statistical differenced were determined by one-way ANOVA and Student-Newman-Keuls multiple comparison test (p<0.05). Thus, addition of ET-1 increased the nitrite levels nearly 2-fold when compared to control cells or cells treated with PD-142893.
# [4] = test system: rat optic nerve; assay: Anterograde axonal transport in rat optic nerve after intravitreal injection (35S-methionine pulse label); format: in vivo; conditions: 28 hour ISI, 2 mmol dose, p>0.999, ANOVA, N=7
# Excerpt: Newly synthesized proteins undergoing anterograde axonal transport in the optic nerve were pulse-labeled in either the presence or absence of endothelin as modified from previously published methods (van Biesen et al., 1995). Modifications to previously published methods were minimal and involved the replacement of a distilled water vehicle for resuspension of radiolabeled precursors with either HEPES buffered ET-1 or HEPES vehicle buffer alone. ^35S-Methionine (Easytag EXPRESS PROTEIN LABELING MIX, Dupont-NEN Life Sciences, Boston, Mass.) was lyophilized and resuspended in either vehicle alone (10 mM HEPES, pH 7.4, Sigma Chemical Co., St Louis, Mo.) or in vehicle containing 500 μM ET-1 (Bachem, Belmont, Calif.). Rats were anesthetized by Metofane inhalation, and 0.8 mCi (4 μl) of radiolabel in vehicle either plus or minus ET-1 (final dose 2 mmols), was injected into the vitreous of the left eye using a 30 gauge needle attached to a Hamilton syringe (microliter #710, 22s gauge, Hamilton Co., Reno, Nev.) by polyethylene tubing (PE-20, Clay Adams Brand, Becton Dickson and Co., Sparks, Md.) (van Biesen et al., 1995). In one experiment, ET-3 was substituted for ET-1, using the same methods (2 mmol dose, 28 hour ISI, N=7 for controls, N=7 for experimentals). […] One minute after injection, all retinas appeared normal in color. (Based upon these initial observations, further observations of the retinas were not performed). Information on the dose-related effect(s) of intravitreal ET-1 in this species (i.e. rat) were unavailable, and physiological/pathological concentrations of endothelin in the optic nerve head's microenvironment are generally unknown. Therefore, dose selection was made on the basis of a small pilot study, using these methods and measuring the total pulse-labeled protein axonally transported into the rat optic nerve. (An N of 3 rats in every group was used only for the pilot study, 4 hour ISI, data not shown). […] However, significant effects on axonal transport (4 hour ISI) were only seen in the pilot study for the 2 mmol dose. […] Possible effect(s) on non-assayed ocular tissues were not considered in dose selection, as data on these were unavailable for either acute or chronic intravitreal ET-1 administration, in rats.
# This technique was employed to determine if endothelin-1 also affected the axonal transport in the optic nerve of rats, which is severely compromised in glaucoma. Harvest and preparation of pulse-labeled optic nerves in animals, wherein animals were anesthetized with metofane at specified times after injection and sacrificed by decapitation. Injection-sacrifice intervals were selected based upon the published characterizations of anterograde axonal transport in rat optic nerve for specific marker proteins associated with specific classes of axonally transported materials (Table 4) (Elluru et al., 1995; Garner and Lasek, 1981; Garner and Lasek, 1982; Jahn et al., 1985). Seven vehicle-treated animals and seven endothelin-treated animals were sacrificed at each of the specified times (4, 24, 28, 32, 36 hours and 4, 21 days). Optic nerves were removed, flash frozen with crushed dry ice, and sectioned frozen. Nerves were sectioned to aid complete homogenization, and to provide additional data for future studies. The frozen sections (2 mm in length) were numbered as segments 1-4 (from proximal to distal), and glass-on glass homogenized in 100 μlof BUST sample buffer (2% β-mercaptoethanol, 8M urea, 1% SDS, 0.1M Tris, 0.02% phenol red, pH 7.4). A 25% aliquot of each homogenized segment was counted in a liquid scintillation counter, and counts were corrected for decay, quench, and counting efficiency.
compound,measurement,setting,value
O=P(O)(O)CN[C@@H](Cc1ccc(-c2ccccc2)cc1)c1nn[nH]n1 [CGS 26303],fmoles 125I ET-1 produced/mg protein/180 min,"[1]; HNPE cells plasma membrane fraction, 100 μM CGS-26303, 180 min, 37° C., control 27 ± 1",12 ± 2* fmoles ^125I ET-1 produced/mg protein/180 min
same,decrease in 125I ET-1 production,"[1]; HNPE plasma membrane fraction, 180 minute time period, vs control",55%
same,decrease in 125I ET-1,"[2]; rat lung plasma membrane fraction, 180 minutes, vs control",56%
same,fmoles 125I ET-1 produced/mg protein/180 min,"[2]; rat lung tissue plasma membrane fraction, 100 μM CGS-26303, 180 min, 37° C., control 25 ± 1",11 ± 4* fmoles ^125I ET-1 produced/mg protein/180 min
"N-Acetyl-b-phenyl D-Phy-Leu-Asp-Ile-Ile-Trp ({Ac-dPhe(β-Ph)}-LDIIW) [PD-142893, ETA/B receptor antagonist]","nitrite production, PD-142893 + ET-1",[3],decrease in nitrite production
"ET-3: ETB-receptor-selective agonist, endothelin isopeptide (CTCFTYKDKECVYYCHLDIIW; ends and bridges not checked; cysteine pairing not given here; UniProt P14138 97-117, looked up)",effect of intravitreal ET-3 on anterograde axonal transport compared with ET-1,[4],no significant difference between ET-1 and ET-3
